Test results as given in patent US20230143604A1, “QW DOSING OF GIP RECEPTOR AGONIST PEPTIDE COMPOUNDS AND USES THEREOF” (TAKEDA PHARMACEUTICAL COMPANY LIMITED, priority 2020, published 2023).
Starred links: 1 amine or outer side, 2 acyl side, 3 side chain; linkers in the order of their positions; H or OH if unused. Non-standard residues stand in square brackets, D forms with d. Residues, ends and D or L forms follow the SMILES beside them. Groups on a side chain read outwards from the residue. *: point of attachment. C18 diacid = O=C(O)CCCCCCCCCCCCCCCCC(=O)*; C17 diacid = O=C(O)CCCCCCCCCCCCCCCC(=O)*; γGlu = O=C(O)[C@H](CCC(=O)[*:2])N[*:1]; NMeY = CN[C@@H](Cc1ccc(O)cc1)C(=O)O; AEEA = NCCOCCOCC(=O)O; Aib = CC(C)(N)C(=O)O

Tests used:
[1] = Serum half-life and percentage remaining at 48 hours; format: in vitro ADME; settings: human plasma, 500 nM peptide, 37° C.; for half-life at 500 nM / remaining at 48 h, 500 nM: both sexes, pH 7.4; for half-life at 500 nM: read-out: Serum t1/2 (converted); for remaining at 48 h, 500 nM: plasma (sodium heparin)
Description: Human plasma (mixed gender: sodium heparin is used as anti-coagulant; pre-adjusted to pH 7.4—NB alternative species may be used) is spiked with each test peptide (500 nM) and incubated·cn=3) at 37° C. for 48 hours in a 5% CO2 environment. Aliquots are taken at 0. 1, 2, 4, 7, 24 and […] and pH adjusted to pH 3 with 20% formic acid prior to analysis. Appropriate positive control compounds will be incubated in parallel, in addition to a no plasma control, sampled at 0 and 8 hours. All samples will be treated with ice-cold acetonitrile/methanol (4:1 (v/v)) containing internal standard prior to centrifugation at 2000 g and 4° C. for 10 minutes and subjected to LC-MS/MS analysis.
The samples are analyzed by LC-MS/MS using a 6500 (or equivalent) triple quadrupole mass spectrometer (AB Sciex) coupled to an appropriate Liquid Chromatography (LC) system. Protein binding and stability values are determined via peak area ratios using multiple reaction monitoring (MRM) parameters following compound optimisation. Multiple reaction monitoring (MRM) is a highly sensitive method of targeted mass spectrometry (MS) that can be used to selectively detect and quantify peptides based on the screening of specified precursor peptide-to-fragment ion transitions.

[2] = Solubility in phosphate buffer pH 7.4
Summary of the method: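 Solubility at pH 7.4 determined by stepwise addition of 200 mM phosphate buffer in 100 μL increments to 3 mg peptide, mixing briefly each time, until no insoluble material remained, then measured by liquid chromatography.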

[3] = Human plasma protein binding (PPB); format: in vitro ADME
Summary of the method: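 Peptides spiked at 1000 nmol/L into pooled human K2-EDTA plasma adjusted to pH 7.4, incubated 30 min at 37 °C, then ultracentrifuged at ~450,000 g, 4 °C for 3 h. Fu derived from LC-MS/MS (MRM) peak area ratios, supernatant versus plasma.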

[4] = Dog plasma protein binding (PPB); format: in vitro ADME; settings: pH 7.4; fraction unbound; dog serum; read-out: Dog PPB (FUplasma)
Summary of the method: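 Fraction unbound (Fu,plasma) is given as a percentage. It was measured with the method and analysis of the human protein-binding protocol, but using dog serum in place of human serum.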

[5] = Pharmacokinetics in dog after IV and SC dosing; settings: in vivo
Summary of the method: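 Dogs were dosed IV or SC at 1 mL/kg with peptide at 3 nmol/mL in 10% DMSO/0.09% Polysorbate/PBS pH 7.4. K2-EDTA plasma was sampled to 336 h, and peptide was quantified by LCMS to derive half-life.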

[6] = pH 7.4, aqueous buffer, pH 7.4 Phosphate Buffer - Solubility, 200 mM Phosphate buffer pH 7.4
[7] = pH 7.4, solubility in phosphate buffer at pH 7.4, 200 mM phosphate buffer pH 7.4

| Structure (SMILES) | half-life at 500 nM [1] [h] | remaining at 48 h, 500 nM ([1]; 48 hr) [%] | solubility [2, 6] [mg/mL] | solubility [2, 7] [mg/mL] | % Remaining at 48 hr ([1]; 48 hr) [%] | fraction unbound at 30 min, 1000 nmol/L ([3]; both sexes, pH 7.4, fraction unbound, human plasma, 1000 nmol/L peptide, ultracentrifugation, read-out: Human PPB (FUplasma)) | free unbound peptide in human plasma (in words) ([3]; judged for once per week (QW) dosing) | fraction unbound at 30 min, 1000 nmol/L [4] | half-life ([5]; IV 3 nmol/kg, read-out: IV T½ (converted)) [h] | MRT last ([5]; SC 3 nmol/kg, read-out: SC MRT 0-last) [h] |
| --- | --- | --- | --- | --- | --- | --- | --- | --- | --- | --- |
| CC[C@H](C)[C@H](NC(=O)[C@H](CO)NC(=O)[C@H](Cc1ccc(O)cc1)NC(=O)[C@H](CC(=O)O)NC(=O)[C@H](CO)NC(=O)[C@@H](NC(=O)[C@H](Cc1ccccc1)NC(=O)[C@@H](NC(=O)CNC(=O)[C@H](CCC(=O)O)NC(=O)C(C)(C)NC(=O)[C@H](Cc1ccc(O)cc1)NC)[C@@H](C)O)[C@@H](C)CC)C(=O)N[C@@H](C)C(=O)N[C@@H](CCCCNC(=O)COCCOCCNC(=O)COCCOCCNC(=O)CC[C@H](NC(=O)CCCCCCCCCCCCCCCCC(=O)O)C(=O)O)C(=O)N[C@@H](CC(=O)O)C(=O)N[C@@H](CCCNC(=N)N)C(=O)N[C@H](C(=O)N[C@@H](Cc1c[nH]cn1)C(=O)N[C@@H](CCC(N)=O)C(=O)N[C@@H](CCC(N)=O)C(=O)N[C@@H](CC(N)=O)C(=O)N[C@@H](Cc1ccccc1)C(=O)N[C@H](C(=O)N[C@@H](CC(N)=O)C(=O)N[C@@H](Cc1c[nH]c2ccccc12)C(=O)N[C@@H](CC(C)C)C(=O)N[C@@H](CC(C)C)C(=O)N[C@@H](C)C(=O)N[C@@H](CCC(N)=O)C(=O)N[C@@H](CCCNC(=N)N)C(=O)N1CCC[C@H]1C(=O)N[C@@H](CO)C(=O)N[C@@H](CO)C(=O)NCC(=O)N[C@@H](C)C(=O)N1CCC[C@H]1C(=O)N1CCC[C@H]1C(=O)N1CCC[C@H]1C(=O)N[C@@H](CO)C(N)=O)C(C)C)[C@@H](C)CC [Compound 3] (H-[NMeY][Aib]EGTFISDYSIAK([AEEA-AEEA-γGlu-C18 diacid])DRIHQQNFVNWLLAQRPSSGAPPPS-NH2) | 15.9 | 13 | ≥ 30 | ≥ 15 | – | – | – | – | – | – |
| CC[C@H](C)[C@H](NC(=O)[C@H](Cc1ccccc1)NC(=O)[C@@H](NC(=O)CNC(=O)[C@H](CCC(=O)O)NC(=O)C(C)(C)NC(=O)[C@H](Cc1ccc(O)cc1)NC)[C@@H](C)O)C(=O)N[C@@H](CO)C(=O)N[C@@H](CC(=O)O)C(=O)N[C@@H](Cc1ccc(O)cc1)C(=O)N[C@@H](CO)C(=O)N[C@H](C(=O)NC(C)(C)C(=O)N[C@@H](CC(C)C)C(=O)N[C@@H](CC(=O)O)C(=O)N[C@@H](CCCNC(=N)N)C(=O)N[C@@H](CCCCNC(=O)COCCOCCNC(=O)COCCOCCNC(=O)CC[C@H](NC(=O)CC[C@H](NC(=O)CCCCCCCCCCCCCCCC(=O)O)C(=O)O)C(=O)O)C(=O)N[C@@H](C)C(=O)N[C@@H](CCC(N)=O)C(=O)NC(C)(C)C(=O)N[C@@H](CC(N)=O)C(=O)N[C@@H](Cc1ccccc1)C(=O)N[C@H](C(=O)N[C@@H](CC(N)=O)C(=O)N[C@@H](Cc1c[nH]c2ccccc12)C(=O)N[C@@H](CC(C)C)C(=O)N[C@@H](CC(C)C)C(=O)N[C@@H](C)C(=O)N[C@@H](CCC(N)=O)C(=O)N[C@@H](CCCNC(=N)N)C(=O)N1CCC[C@H]1C(=O)N[C@@H](CO)C(=O)N[C@@H](CO)C(=O)NCC(=O)N[C@@H](C)C(=O)N1CCC[C@H]1C(=O)N1CCC[C@H]1C(=O)N1CCC[C@H]1C(=O)N[C@@H](CO)C(N)=O)C(C)C)[C@@H](C)CC [Compound 15] (H-[NMeY][Aib]EGTFISDYSI[Aib]LDRK([AEEA-AEEA-γGlu-γGlu-C17 diacid])AQ[Aib]NFVNWLLAQRPSSGAPPPS-NH2) | > 48 | – | ≥ 30 | ≥ 15 | 131.1 | 0.0017 | optimum free unbound peptide | 0.0021 | 57 | 64 |
| CC[C@H](C)[C@H](NC(=O)[C@H](CO)NC(=O)[C@H](Cc1ccc(O)cc1)NC(=O)[C@H](CC(=O)O)NC(=O)[C@H](CO)NC(=O)[C@@H](NC(=O)[C@H](Cc1ccccc1)NC(=O)[C@@H](NC(=O)CNC(=O)[C@H](CCC(=O)O)NC(=O)C(C)(C)NC(=O)[C@H](Cc1ccc(O)cc1)NC)[C@@H](C)O)[C@@H](C)CC)C(=O)N[C@@H](C)C(=O)N[C@@H](CC(C)C)C(=O)N[C@@H](CC(=O)O)C(=O)N[C@@H](CCCNC(=N)N)C(=O)NC(C)(C)C(=O)N[C@@H](Cc1c[nH]cn1)C(=O)N[C@@H](CCC(N)=O)C(=O)NC(C)(C)C(=O)N[C@@H](CC(N)=O)C(=O)N[C@@H](Cc1ccccc1)C(=O)N[C@H](C(=O)N[C@@H](CC(N)=O)C(=O)N[C@@H](Cc1c[nH]c2ccccc12)C(=O)N[C@@H](CC(C)C)C(=O)N[C@@H](CC(C)C)C(=O)N[C@@H](C)C(=O)N[C@@H](CCC(N)=O)C(=O)N[C@@H](CCCCNC(=O)COCCOCCNC(=O)COCCOCCNC(=O)CC[C@H](NC(=O)CCCCCCCCCCCCCCCCC(=O)O)C(=O)O)C(=O)N1CCC[C@H]1C(=O)N[C@@H](CO)C(=O)N[C@@H](CO)C(=O)NCC(=O)N[C@@H](C)C(=O)N1CCC[C@H]1C(=O)N1CCC[C@H]1C(=O)N1CCC[C@H]1C(=O)N[C@@H](CO)C(N)=O)C(C)C [Compound 1] (H-[NMeY][Aib]EGTFISDYSIALDR[Aib]HQ[Aib]NFVNWLLAQK([AEEA-AEEA-γGlu-C18 diacid])PSSGAPPPS-NH2) | > 48 | 100 | ≥ 30 | ≥ 15 | – | – | – | – | – | – |
| CC[C@H](C)[C@H](NC(=O)[C@H](CO)NC(=O)[C@H](Cc1ccc(O)cc1)NC(=O)[C@H](CC(=O)O)NC(=O)[C@H](CO)NC(=O)[C@@H](NC(=O)[C@H](Cc1ccccc1)NC(=O)[C@@H](NC(=O)CNC(=O)[C@H](CCC(=O)O)NC(=O)C(C)(C)NC(=O)[C@H](Cc1ccc(O)cc1)NC)[C@@H](C)O)[C@@H](C)CC)C(=O)N[C@@H](C)C(=O)N[C@@H](CC(C)C)C(=O)N[C@@H](CC(=O)O)C(=O)N[C@@H](CCCNC(=N)N)C(=O)N[C@@H](CCCCNC(=O)COCCOCCNC(=O)COCCOCCNC(=O)CC[C@H](NC(=O)CCCCCCCCCCCCCCCCC(=O)O)C(=O)O)C(=O)N[C@@H](Cc1c[nH]cn1)C(=O)N[C@@H](CCC(N)=O)C(=O)N[C@@H](CCC(N)=O)C(=O)N[C@@H](CC(N)=O)C(=O)N[C@@H](Cc1ccccc1)C(=O)N[C@H](C(=O)N[C@@H](CC(N)=O)C(=O)N[C@@H](Cc1c[nH]c2ccccc12)C(=O)N[C@@H](CC(C)C)C(=O)N[C@@H](CC(C)C)C(=O)N[C@@H](C)C(=O)N[C@@H](CCC(N)=O)C(=O)N[C@@H](CCCNC(=N)N)C(=O)N1CCC[C@H]1C(=O)N[C@@H](CO)C(=O)N[C@@H](CO)C(=O)NCC(=O)N[C@@H](C)C(=O)N1CCC[C@H]1C(=O)N1CCC[C@H]1C(=O)N1CCC[C@H]1C(=O)N[C@@H](CO)C(N)=O)C(C)C [Compound 4] (H-[NMeY][Aib]EGTFISDYSIALDRK([AEEA-AEEA-γGlu-C18 diacid])HQQNFVNWLLAQRPSSGAPPPS-NH2) | 17.1 | 15 | ≥ 30 | ≥ 15 | – | – | – | – | – | – |
| CC[C@H](C)[C@H](NC(=O)[C@H](CO)NC(=O)[C@H](Cc1ccc(O)cc1)NC(=O)[C@H](CC(=O)O)NC(=O)[C@H](CO)NC(=O)[C@@H](NC(=O)[C@H](Cc1ccccc1)NC(=O)[C@@H](NC(=O)CNC(=O)[C@H](CCC(=O)O)NC(=O)C(C)(C)NC(=O)[C@H](Cc1ccc(O)cc1)NC)[C@@H](C)O)[C@@H](C)CC)C(=O)N[C@@H](C)C(=O)N[C@@H](CC(C)C)C(=O)N[C@@H](CC(=O)O)C(=O)N[C@@H](CCCNC(=N)N)C(=O)N[C@H](C(=O)N[C@@H](Cc1c[nH]cn1)C(=O)N[C@@H](CCC(N)=O)C(=O)NC(C)(C)C(=O)N[C@@H](CC(N)=O)C(=O)N[C@@H](Cc1ccccc1)C(=O)N[C@H](C(=O)N[C@@H](CC(N)=O)C(=O)N[C@@H](Cc1c[nH]c2ccccc12)C(=O)N[C@@H](CC(C)C)C(=O)N[C@@H](CC(C)C)C(=O)N[C@@H](C)C(=O)N[C@@H](CCC(N)=O)C(=O)N[C@@H](CCCCNC(=O)COCCOCCNC(=O)COCCOCCNC(=O)CC[C@H](NC(=O)CCCCCCCCCCCCCCCCC(=O)O)C(=O)O)C(=O)N1CCC[C@H]1C(=O)N[C@@H](CO)C(=O)N[C@@H](CO)C(=O)NCC(=O)N[C@@H](C)C(=O)N1CCC[C@H]1C(=O)N1CCC[C@H]1C(=O)N1CCC[C@H]1C(=O)N[C@@H](CO)C(N)=O)C(C)C)[C@@H](C)CC [Compound 2] (H-[NMeY][Aib]EGTFISDYSIALDRIHQ[Aib]NFVNWLLAQK([AEEA-AEEA-γGlu-C18 diacid])PSSGAPPPS-NH2) | 24.1 | 27 | ≥ 30 | ≥ 15 | – | – | – | – | – | – |
